{"source": "patent US6866861B1", "about": "“Method and composition for enhancing milk component concentrations” (Land O'Lakes, Inc., priority 1999, dated 2005)", "test_system": "cows", "assay": "Abomasal infusion of xylitol in cows, milk component concentrations (Example 1)", "format": "in vivo, cow", "procedure": "To determine the weight percent total solids, wet basis, in a sample, the actual weight of total solids is determined by analyzing the sample in accordance with Method #925.23 (33.2.09) of Official Methods of Analysis, Association of Official Analytical Chemists (AOAC) (16th Ed., 1995). The weight percent total solids, wet basis, is then calculated by dividing the actual weight of total solids by the actual weight of the sample. The weight percent of true protein, wet basis, for a particular sample is calculated after first determining the wet basis weight percent of total Kjeldahl nitrogen and the wet basis weight percent of non-protein nitrogen in the sample. The wet basis weight percent of total Kjeldahl nitrogen in the sample is determined using the method referenced above. The wet basis weight percent of non-protein nitrogen (NPN) in the sample is determined in accordance with Method #991.21 (33.2.12) of Official Methods of Analysis, Association of Official Analytical Chemists (AOAC) (16th Ed., 1995). The weight percent of true protein, wet basis, in the sample is then determined by subtracting the wet basis weight percent of non-protein nitrogen in the sample from the wet basis weight percent of total Kjeldahl nitrogen in the sample. To determine the weight percent lactose, wet basis, in a liquid sample, the weight of the liquid sample is first determined. The actual weight of lactose in the liquid sample may then be determined using analysis kit number 176-303, that is available from Boehringer-Mannheim of Indianapolis, Ind. in accordance with the procedural instructions included with analysis kit number 176-303. The weight percent lactose, wet basis, in the liquid sample is then calculated by dividing the actual weight of lactose in the liquid sample by the actual weight of the liquid sample. To determine the weight percent fat, wet basis, in a sample, the actual weight of fat in the sample is determined in accordance with Method #974.09 (33.7.18) of Official Methods of Analysis, Association of Official Analytical Chemists (AOAC) (16th Ed., 1995). The weight percent fat, wet basis, is then calculated by dividing the actual weight of fat in the sample by the actual weight of the sample. In this example, xylitol was abomasally infused into three different cows at a rate of 100 grams per cow per day during a 14 day test period. The rations provided to the cows during the period extending from day 0, prior to abomasal infusion of xylitol, through day 14 of the test period were the same. The only difference in feeding of the cows between day 0 and days 1-14 of the test period were that during days 1-14 the cows were abomasally infused with the dosage of 100 grams of xylitol per cow per day. The xylitol rations were mixed with water in the ratio of 150 grams of water per 100 grams of xylitol to facilitate infusion. Milk from the three cows was collected and analyzed prior to infusion (on day 0) and also was collected and analyzed on the third, seventh and fourteenth day of the test period. The results presented in Table 1 below for each milk component are averages for the milk collected from the three different cows on day 0 and a mean of the day 3, 7, and 14 concentration values, averaged over all of the test cows, for each particular milk component.", "key": {"[1]": {"conditions": "milk, mean of days 3, 7, 14 minus day 0, 100 g/cow/day abomasal"}, "[2]": {"conditions": "milk, mean of days 3, 7 and 14, 100 g/cow/day abomasal infusion, average of 3 cows"}}}
{"smiles": "OC[C@@H](O)[C@H](O)[C@@H](O)CO", "note": "[xylitol]", "values": [{"measurement": "weight percent of fat, true protein, lactose, and total solids in the milk (conclusion in words)", "setting": "abomasal infusion, 14 day test period", "result": "net increase"}, {"measurement": "Fat, Difference (mean − day 0)", "setting": "[1]", "result": "+0.31 Wt %"}, {"measurement": "Lactose, Difference (mean − day 0)", "setting": "[1]", "result": "+0.01 Wt. %"}, {"measurement": "Total Solids, Difference (mean − day 0)", "setting": "[1]", "result": "+0.39 Wt. %"}, {"measurement": "True Protein, Difference (mean − day 0)", "setting": "[1]", "result": "+0.10 Wt. %"}, {"measurement": "Fat", "setting": "[2]", "result": 3.63, "unit": "Wt %"}, {"measurement": "Lactose", "setting": "[2]", "result": 4.66, "unit": "Wt. %"}, {"measurement": "Total Solids", "setting": "[2]", "result": 11.82, "unit": "Wt. %"}, {"measurement": "True Protein", "setting": "[2]", "result": 2.86, "unit": "Wt. %"}]}
